Measurements published in EP0559845B1, “Use of compounds in preventing endotoxin shock” (priority 1991, dated 1992).
Entries after “also recorded” stand apart in the source; their conditions may differ.

What was measured:
[1] = tested on: GTPase activity in membranes isolated from a macrophage (RAW 264.7) cell line; assay: GTPase assay, basal activity and single agonists; assay type: biochemical
Excerpt: (§1) We sought to directly evaluate the influence of LPS on possible G-protein function by examining agonist-enhanced GTPase activity, which is a hallmark of G-protein action. Moreover, because macrophages are one of the key cell types in the release of toxic mediators following an LPS challenge, we first assessed the capacity of LPS to influence GTPase activity in membranes isolated from RAW 264.7 cells, which is a highly LPS-responsive macrophage cell line. In these studies, GTPase activity was measured using a standard assay. The activity was determined using 2 µM γ-^32P-GTP in the presence of 0.1 mM ATP and 0.2 mM of the non-hydrolyzable ATP analog, AMPPNP, in order to minimize nonspecific nucleotidase activity in the membrane preparations. In the preferred practice of the present invention, the ability of a candidate compound to inhibit LPS-induced GTPase is assessed by measuring the release of ^32Pi from γ-^32P-GTP.
(§2) We first determined the optimal LPS concentration for GTPase stimulation. In all experiments, the LPS dose response curve was quite steep, and with the highest activity occurring around 200-300 µg LPS/ml.
(§3) Under these conditions, GTPase activation was evident at 100 µg LPS/ml (roughly 6 µM assuming an average MW ∼ 17,000 kDa), and the maximal effect was seen by 300 µg/ml LPS. (2) To show adenosine mucleotide synergism with LPS-stimulated GTPase activity, either 10µM ATP or 30µM ADP replace the 0.1 mM ATP and 0.2 mM AMPPNP of the standard assay described by Cassel et al. and Neer et al.
Because the above inhibitor studies indicated a maximum LPS-stimulated GTPase activity in the presence of ATP and ATP analogs, we investigated this interaction by measuring the ATP-dependence of the GTPase activity in macrophage membranes in the presence and absence of an optimal dose of LPS. […] This stimulation by ATP may be due to the action of purinergic receptors, i.e., the adenosine and ATP receptors which are well-characterized to be coupled to various G-proteins.
(§4) To assess whether the LPS/ATP-enhanced GTPase is a "low Km" form, which would be expected for a variety of large and small MW G-proteins, as well as for various GAP and ARF-like proteins, as opposed to a "high Km" form, such as a phosphatase, we assayed the GTPase activity using 0.2 and 50 µM GTP essentially as described previously. […] The LPS and ATP stimulated a low Km GTPase activity by ∼30% and 70%, respectively, when added individually. This stimulation of low Km activity was slightly greater than that estimated using the standard assay conditions. […] The LPS stimulation of GTPase activity is enhanced by adenine nucleotides.

[2] = tested on: LPS-induced GTPase activity in membranes isolated from RAW 264.7 cells; assay: GTPase assay (release of 32Pi from γ-32P-GTP), LPS-stimulated activity; assay type: biochemical; conditions: for LPS-stimulated GTPase activity when adenine nucleotide included in the incubation: compared with no added adenine nucleotides
Excerpt: as §1, §3
(§5) In the preferred assay, a candidate compound (.001 - 1000 µM) is dissolved or suspended in 100µl of a reaction buffer containing 20mM HEPES (pH 7.4), 0.01mM ATP or ADP, membranes isolated from RAW 264.7 cells, 2µM γ-^32P-GTP (3-9 X 10cpm/pmol), 5mM MgCl2, 18µM LPS (based on an estimated MW of 17,000 kDa for E. coli 0111:B4 endotoxin), and 250 mM ammonium sulfate. The reaction is initiated by the addition of the γ-^32P-GTP and the mixture incubated at 30-37°C for 15 to 30 minutes. The reaction is terminated by the addition of 500µl of 5% trichloroacetic acid and 500µl of 0.1gm/ml acid-activated charcoal in 5% trichloroacetic acid. The samples are centrifuged at 14,000xg for 10 minutes, and a 550µl aliquot of the supernatant is removed for scintillation counting. The supernatant will contain the released ^32Pi. The extent of GTPase inhibition is measured by the decrease in the amount of ^32Pi released from γ-^32P-GTP. Appropriate controls include mixtures with one of the following omitted: (i) test compound, (ii) endotoxin, and (iii) ATP, ADP or AMPPNP.
(§6) The macrophage-like cell line RAW 264.7 is cultured as described using RPMI 1640 medium supplemented with 10% fetal calf serum (FCS) containing < 0.1 ng/ml LPS. The membranes are resuspended in 20 mM HEPES (pH 7.4), 1 mM dithiothreitol, 1 mM EDTA and 10 µg leupeptin/ml. Aliquots are stored at -70°C until assayed.

[3] = tested on: LPS-induced GTPase activity in membranes isolated from RAW 264.7 cells; assay: GTPase assay: effect of compounds on LPS-stimulated GTPase activity in macrophage membranes (release of 32Pi from γ-32P-GTP); assay type: biochemical; conditions: for relative abilities of purines to stimulate LPS-enhanced GTPase: dose-response studies, rank order
Excerpt: as §1, with “preparations.” for “preparations. In the preferred practice of the present invention, the ability of a candidate compound to inhibit LPS-induced GTPase is assessed by measuring the release of ^32Pi from γ-^32P-GTP.”
as §5, with “The” for “In the preferred assay, a candidate compound (.001 - 1000 µM) is dissolved or suspended in 100µl of a reaction buffer containing 20mM HEPES (pH 7.4), 0.01mM ATP or ADP, membranes isolated from RAW 264.7 cells, 2µM γ-^32P-GTP (3-9 X 10cpm/pmol), 5mM MgCl2, 18µM LPS (based on an estimated MW of 17,000 kDa for E. coli 0111:B4 endotoxin), and 250 mM ammonium sulfate. The”
The membranes are resuspended in 20 mM HEPES (pH 7.4), 1 mM dithiothreitol, 1 mM EDTA and 10 µg leupeptin/ml. Aliquots are stored at -70°C until assayed.

[4] = tested on: GTPase activity in membranes isolated from a macrophage (RAW 264.7) cell line; assay: GTPase assay: basal or agonist-stimulated GTPase activity in macrophage membranes; assay type: biochemical
Excerpt: as §1, §2, §3, §5, §6, §4

[5] = tested on: TNFα production by RAW264.7 macrophages; assay: LPS-mediated TNF production by macrophages, measured by cell viability assay on actinomycin D-sensitized L929 cells; assay type: cell-based; conditions: RAW264.7 cells treated with 2-MeSATP (0-5µM), LPS and ATP
Experimental: Moreover, 2-MeSATP decreased LPS-mediated TNFα production by RAW264.7 macrophages. Production of TNF by the macrophage cells was measured by a "cell viability" assay. This is a standard assay described in Birkland, et al., Adv. Exp. Med. Biol. 256: 399-402 (1990). In brief, TNF in solution will kill actinomycin D-sensitized L929 cells, which can be measured by a loss of MTT dye reduction. The supernatent was removed from RAW264.7 cells treated with 2-MeSATP, LPS and ATP. The greater the amount of 2-MeSATP added (0-5µM), the less TNF was produced by the macrophage cells.

| Compound | stimulation (potentiation) of LPS-stimulated GTPase activity [3] | relative abilities of purines to stimulate LPS-enhanced GTPase [3] | effect on basal GTPase activity ([4]; no LPS) | inhibition of LPS-stimulated GTPase activity [3] | also measured |
| --- | --- | --- | --- | --- | --- |
| phosphatidylcholine [listing 1 of 2 here] |  |  |  |  | effect on basal GTPase activity [1]: did not stimulate |
| Nc1ncnc2c1ncn2[C@@H]1O[C@H](COP(=O)(O)OP(=O)(O)O)[C@@H](O)[C@H]1O [ADP] | potentiated; also recorded: pronounced increase in LPS-stimulated GTPase activity | ATP> ATPγS> ADP> AMPPNP>> β,γ methylene ATP> 2-MeSATP |  |  | LPS-stimulated GTPase activity when adenine nucleotide included in the incubation [2]: pronounced increase |
| Nc1ncnc2c1ncn2[C@@H]1O[C@H](COP(=O)(O)OP(=O)(O)NP(=O)(O)O)[C@@H](O)[C@H]1O [AMPPNP] | pronounced increase in LPS-stimulated GTPase activity | ATP> ATPγS> ADP> AMPPNP>> β,γ methylene ATP> 2-MeSATP |  |  | LPS-stimulated GTPase activity when adenine nucleotide included in the incubation [2]: pronounced increase |
| Nc1ncnc2c1ncn2[C@@H]1O[C@H](COP(=O)(O)OP(=O)(O)OP(=O)(O)O)[C@@H](O)[C@H]1O [ATP] | potentiated; also recorded: pronounced increase in LPS-stimulated GTPase activity | ATP> ATPγS> ADP> AMPPNP>> β,γ methylene ATP> 2-MeSATP |  |  | LPS-stimulated GTPase activity when adenine nucleotide included in the incubation [2]: pronounced increase; ATP concentration of maximum stimulation of GTPase activity ([4]; ATP alone, no LPS, biphasic stimulation): 1 to 10 µM; combined effects of LPS and ATP: stimulation calculated for the low Km activity ([4]; LPS plus ATP): 228 % of basal activity; combined effects of LPS and ATP: stimulation measured using standard assay conditions ([4]; LPS plus ATP, 2 µM GTP, 0.1 mM ATP, 0.2 mM AMPPNP): 208 % of basal activity; stimulation of low Km GTPase activity ([4]; added individually, ATP 10 µM): 70%; ATP concentration of striking synergistic stimulation of GTPase activity ([3]; ATP and LPS added together, biphasic): 1 to 10 µM; increase in activity of the GTPase ([3]; ATP in the presence of LPS): three-fold; stimulation of LPS-enhanced GTPase activity ([3]; at 1 µM): active |
| phosphatidic acid [listing 1 of 2 here] |  |  | did not stimulate basal GTPase activity | nor inhibit LPS-stimulated GTPase activity |  |
| 2-methylthio-ATP [2-MeSATP] | no stimulatory effect | ATP> ATPγS> ADP> AMPPNP>> β,γ methylene ATP> 2-MeSATP |  | blocks | LPS-mediated TNFα production [5]: decreased; LPS-mediated TNFα production ([5]; listed as 2-methylthio-ATP): blocks; antagonism of the stimulatory effects of ATP on LPS-inducible GTPase activity ([3]; 2-MeSATP 0-100µM): did antagonize |
| phosphatidylserine [listing 1 of 2 here] |  |  | did not stimulate basal GTPase activity | nor inhibit LPS-stimulated GTPase activity |  |
| CC(C)Cn1c(=O)n(C)c(=O)c2[nH]cnc21 [IBMX] |  |  |  | did not alter the LPS activation of the GTPase | effect on the LPS activation of the GTPase ([2]; P1 purinoreceptor antagonist): did not alter; stimulation of LPS-enhanced GTPase activity ([3]; at 100 µM): did not synergistically increase |
| Triton X-100 |  |  | did reduce basal GTPase activity | did not substantially interfere |  |
| phosphatidic acid [listing 2 of 2 here] |  |  |  |  | effect on basal GTPase activity [1]: did not stimulate |
| phosphatidylserine [listing 2 of 2 here] |  |  |  |  | effect on basal GTPase activity [1]: did not stimulate |
| phosphatidylcholine [listing 2 of 2 here] |  |  | did not stimulate basal GTPase activity | nor inhibit LPS-stimulated GTPase activity |  |
